The target in assay [1] is T1, recombinant human ACC2 (rhACC2) (Homo sapiens, UniProt O00763, V2141I).
T1 construct: a full length Cytomax clone of ACC2 was purchased from Cambridge Bioscience Limited; made in house; host or cells: CHO cells (tetracycline-induced, pcDNA5 FRT TO-TOPO)
The experiment in a line: recombinant hACC2 Transcreener assay (direct inhibition of ACC2 activity). Particulars: Transcreener ADP detection FP assay, 50 μM ATP, 30 μM acetyl-CoA, 50 min at 25° C. Type of assay: biochemical. The method in brief: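 Full-length human ACC2 was expressed in CHO cells and avidin-purified. ADP formation was measured by Transcreener FP in 50 mM HEPES pH 7.2 with 30 μM acetyl-CoA, 50 μM ATP, 8 mM KHCO3 and 5 mM citrate. Reactions ran 50 min at 25 °C with 1% DMSO, then 1 h with stop/detect reagent.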

Assay [2] addresses T2, recombinant human ACC1 (rhACC1) (Homo sapiens, UniProt Q13085, DEL44-44).
T2 construct: recombinant baculovirus containing full length human ACC1 cDNA; made in house; host or cells: SF9 insect cells (baculovirus)
The experiment in a line: recombinant hACC1 Transcreener assay (direct inhibition of ACC1 activity). It counts as biochemical. As to conditions: Transcreener ADP detection FP assay, 50 μM ATP, 30 μM acetyl-CoA, 120 min at 25° C. The method in brief: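 Full-length human ACC1 from baculovirus-infected SF9 cells, dephosphorylated with lambda phosphatase. Reaction in 50 mM HEPES pH 7.2 with 30 μM acetyl-CoA, 50 μM ATP, 10 mM KHCO3, 120 min at 25° C; ADP detected by Transcreener fluorescence polarisation.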

Consider 47 molecules from patent US9139587B2, “N1-pyrazolospiroketone acetyl-CoA carboxylase inhibitors” (Pfizer Inc., priority 2009, dated 2015).

Molecules are shown by their SMILES.

Broadly, the IC50 is the point on the concentration scale where inhibition reaches its midpoint. `CC(C)n1ncc2c1C(=O)CC1(CCN(C(=O)c3ccn4cncc4c3)CC1)C2` [Example 11A-60]: the IC50 in assay [1] stood at 171 nM; in assay [2], 404 nM.
The corresponding values for `CC(C)n1ncc2c1C(=O)CC1(CCN(C(=O)c3ccc4c(cnn4C)c3)CC1)C2` [Example 2A-11] are 33.5 nM and 261 nM.
On the same counts, the results for `CC(C)(C)n1ncc2c1C(=O)CC1(CCN(C(=O)c3cccc(-n4cccn4)c3)CC1)C2` [Example 11A-17] are 48.4 nM and 129 nM.
Turning to `CC(C)(C)n1ncc2c1C(=O)CC1(CCN(C(=O)c3cnc(-c4ccccn4)[nH]3)CC1)C2` [Example 11A-50], the IC50 in assay [1] was 371 nM; in assay [2], 581 nM.
The corresponding values for `Cc1cc(C(=O)N2CCC3(CC2)CC(=O)c2c(cnn2C(C)C)C3)c(N)c(C)n1` [Example 11A-2] are 658 nM and 1480 nM.
The corresponding values for `CC(C)n1ncc2c1C(=O)CC1(CCN(C(=O)c3ccc(-c4ncc[nH]4)cc3)CC1)C2` [Example 11A-1, 1′-(4-(1H-imidazol-2-yl)benzoyl)-1-isopropyl-4,6-dihydrospiro[indazole-5,4′-piperidin]-7(1H)-one] are 31.8 nM and 147 nM.
For the molecule `Cc1cc(C(=O)N2CCC3(CC2)CC(=O)c2c(cnn2C(C)C)C3)n(-c2cccnc2)n1` [Example 11A-4], the IC50 turned out to be 5800 nM in assay [1] and 19600 nM in assay [2].
The corresponding values for `Cc1nc2c(Cl)cc(C(=O)N3CCC4(CC3)CC(=O)c3c(cnn3C(C)C)C4)cc2[nH]1` [Example 2A-52] are 19.3 nM and 54.2 nM.
Consider `CC(C)(C)n1ncc2c1C(=O)CC1(CCN(C(=O)c3cccc(-c4cc[nH]n4)c3)CC1)C2` [Example 11A-23], for which the IC50 in assay [1] is 20.4 nM; in assay [2], 87.1 nM.
The corresponding values for `CC(C)(C)n1ncc2c1C(=O)CC1(CCN(C(=O)c3c[nH]c4ncccc34)CC1)C2` [Example 11A-19] are 71.6 nM and 242 nM.
The corresponding values for `CC(C)(C)n1ncc2c1C(=O)CC1(CCN(C(=O)c3cn4cccc4cn3)CC1)C2` [Example 11A-45] are 745 nM and 1500 nM.
Take `CC(C)n1ncc2c1C(=O)CC1(CCN(C(=O)c3ccc4cc[nH]c(=O)c4c3)CC1)C2` [Example 2A-13]: the figures for the IC50 in assay [1] and in assay [2] were 28 nM and 95.3 nM, respectively.
Turning to `Cc1ccn2cc(C(=O)N3CCC4(CC3)CC(=O)c3c(cnn3C(C)C)C4)nc2c1` [Example 11A-40], the IC50 was determined as 588 nM in assay [1] and 1140 nM in assay [2].
The corresponding values for `CC(C)n1ncc2c1C(=O)CC1(CCN(C(=O)c3cc4ncccc4[nH]3)CC1)C2` [Example 11A-48] are 41.2 nM and 78.9 nM.
On the same counts, the results for `O=C1CC2(CCN(C(=O)c3ccc4[nH]ncc4c3)CC2)Cc2cnn(C3COC3)c21` [Example 9A-1, 1′-(1H-indazole-5-carbonyl)-1-(oxetan-3-yl)-4,6-dihydrospiro[indazole-5,4′-piperidin]-7(1H)-one] are 264 nM and 704 nM.
The corresponding values for `Cc1cc(C(=O)N2CCC3(CC2)CC(=O)c2c(cnn2CC(C)C)C3)ccc1Cl` [Example 2A-5] are 481 nM and 1220 nM.
For `CC(C)n1ncc2c1C(=O)CC1(CCN(C(=O)c3cc4ccccn4c3)CC1)C2` [Example 11A-43], the results for the IC50 in assay [1] and in assay [2] were 45.6 nM and 143 nM, respectively.
On the same counts, the results for `Cc1cc(C(=O)N2CCC3(CC2)CC(=O)c2c(cnn2C)C3)ccc1Cl` [Example 2A-4] are 2530 nM and 8730 nM.
With `CC(C)(C)n1ncc2c1C(=O)CC1(CCN(C(=O)c3ccc(N4CCOCC4)cn3)CC1)C2` [Example 11A-57], the values for the IC50 in assay [1] and in assay [2] were 2330 nM and 9230 nM, respectively.
For `CC(C)n1ncc2c1C(=O)CC1(CCN(C(=O)c3cn4ccccc4n3)CC1)C2` [Example 11A-28], the values for the IC50 in assay [1] and in assay [2] were 391 nM and 917 nM, respectively.
On to `CC(C)n1ncc2c1C(=O)CC1(CCN(C(=O)c3c(O)cnc4ccccc34)CC1)C2` [Example 2A-70], for which the IC50 in assay [1] amounted to 3760 nM; in assay [2], 9790 nM.
The corresponding values for `CC(C)(C)n1ncc2c1C(=O)CC1(CCN(C(=O)c3ccc(-n4cccn4)nc3)CC1)C2` [Example 11A-59] are 80.1 nM and 86.8 nM.
The corresponding values for `CC(C)(C)n1ncc2c1C(=O)CC1(CCN(C(=O)c3ccc4cc[nH]c(=O)c4c3)CC1)C2` [Example 2A-31] are 28.8 nM and 43.5 nM.
The corresponding values for `CC(C)(C)n1ncc2c1C(=O)CC1(CCN(C(=O)c3ccc(-c4ncc[nH]4)cc3)CC1)C2` [Example 11A-53] are 22.8 nM and 68.3 nM.
For the molecule `CC(C)n1ncc2c1C(=O)CC1(CCN(C(=O)c3ccc(-n4cncn4)cc3)CC1)C2` [Example 11A-54], the IC50 in assay [1] amounted to 295 nM; in assay [2], 1500 nM.
The corresponding values for `CC(C)n1ncc2c1C(=O)CC1(CCN(C(=O)c3cc(Cl)c4[nH]c(=O)[nH]c4c3)CC1)C2` [Example 2A-57] are 20.8 nM and 66.5 nM.
On the same counts, the results for `CC(C)(C)n1ncc2c1C(=O)CC1(CCN(C(=O)c3ccnc(-c4cc[nH]n4)c3)CC1)C2` [Example 11A-26] are 41.5 nM and 130 nM.
For the molecule `CC(C)n1ncc2c1C(=O)CC1(CCN(C(=O)c3cc4cnccc4nc3N)CC1)C2` [Example 2A-38], the IC50 came to 99.7 nM in assay [1] and 297 nM in assay [2].
`CC(C)(C)n1ncc2c1C(=O)CC1(CCN(C(=O)c3ccc4c(c3)CC(=O)N4)CC1)C2` [Example 2A-30]: the IC50 in assay [1] is 51 nM; in assay [2] it was 170 nM.
On the same counts, the results for `CC(C)n1ncc2c1C(=O)CC1(CCN(C(=O)c3ccc4ncccc4c3O)CC1)C2` [Example 2A-69] are 42.9 nM and 122 nM.
On the same counts, the results for `CC(C)n1nc(C#N)c2c1C(=O)CC1(CCN(C(=O)c3ccc4[nH]cnc4c3)CC1)C2` [Example 8A-1, 1′-(1H-benzo[d]imidazole-5-carbonyl)-1-isopropyl-7-oxo-1,4,6,7-tetrahydrospiro[indazole-5,4′-piperidine]-3-carbonitrile] are 1660 nM and 7620 nM.
On the same counts, the results for `CC(C)(C)n1ncc2c1C(=O)CC1(CCN(C(=O)c3ccn4ccnc4c3)CC1)C2` [Example 11A-67] are 139 nM and 203 nM.
`Cc1nc2c(F)cc(C(=O)N3CCC4(CC3)CC(=O)c3c(cnn3C(C)C)C4)cc2[nH]1` [Example 2A-54]: the IC50 came out at 51.5 nM in assay [1] and 214 nM in assay [2].
The corresponding values for `CC(C)n1ncc2c1C(=O)CC1(CCN(C(=O)c3ccc4cnn(C)c4c3)CC1)C2` [Example 2A-10] are 29.2 nM and 188 nM.
On to `CC(C)n1ncc2c1C(=O)CC1(CCN(C(=O)c3cc4cccn4cn3)CC1)C2` [Example 11A-47], for which the figures for the IC50 in assay [1] and in assay [2] were 373 nM and 850 nM, respectively.
On the same counts, the results for `CC(C)n1ncc2c1C(=O)CC1(CCN(C(=O)c3cc(F)c4[nH]ncc4c3)CC1)C2` [Example 2A-37] are 34.5 nM and 87.4 nM.
The corresponding values for `CC(C)n1ncc2c1C(=O)CC1(CCN(C(=O)c3cc(Cl)c4nc[nH]c4c3)CC1)C2` [Example 2A-47] are 15.9 nM and 48.2 nM.
The corresponding values for `CC(C)n1ncc2c1C(=O)CC1(CCN(C(=O)c3cc(Cl)c4cn[nH]c4c3)CC1)C2` [Example 2A-65] are 51.5 nM and 74.9 nM.
With `COCCn1ncc2c1C(=O)CC1(CCN(C(=O)c3ccc(Cl)c(C)c3)CC1)C2` [Example 2A-8], the IC50 is 4890 nM in assay [1] and 16000 nM in assay [2].
The corresponding values for `Cn1ncc2c(=O)c(C(=O)N3CCC4(CC3)CC(=O)c3c(cnn3C(C)(C)C)C4)c[nH]c21` [Example 11A-70] are 1040 nM and 1860 nM.
The corresponding values for `CC(C)(C)n1ncc2c1C(=O)CC1(CCN(C(=O)c3cc(F)c4nc[nH]c4c3)CC1)C2` [Example 2A-51] are 29.9 nM and 72.7 nM.
In the case of `CC(C)n1ncc2c1C(=O)CC1(CCN(C(=O)c3ccc4cnccc4n3)CC1)C2` [Example 2A-63], the IC50 in assay [1] stood at 3200 nM; in assay [2] it was 9330 nM.
Take `CC(C)(C)n1ncc2c1C(=O)CC1(CCN(C(=O)c3cc(-c4cccnc4)[nH]n3)CC1)C2` [Example 11A-29]: the IC50 in assay [1] is 64.5 nM; in assay [2], 151 nM.
The corresponding values for `CC(C)(C)n1ncc2c1C(=O)CC1(CCN(C(=O)c3cccc(-c4ncc[nH]4)c3)CC1)C2` [Example 11A-64] are 24.4 nM and 105 nM.
On the same counts, the results for `CC(C)(C)n1ncc2c1C(=O)CC1(CCN(C(=O)c3cc(Cl)c4nc[nH]c4c3)CC1)C2` [Example 2A-48] are 17.2 nM and 51.1 nM.
Take `Cc1noc(-c2cc(C(=O)N3CCC4(CC3)CC(=O)c3c(cnn3C(C)C)C4)ccn2)n1` [Example 2A-60]: the results for the IC50 in assay [1] and in assay [2] were 3990 nM and 8240 nM, respectively.
On the same counts, the results for `CC(C)(C)n1nc(C#N)c2c1C(=O)CC1(CCN(C(=O)c3ccc4[nH]ncc4c3)CC1)C2` [Example 2A-77] are 1300 nM and 6160 nM.
